Laboratory results: PubChem BioAssay AID2060604 (Molecular Pharmacology Branch, DTP, NCI, 2025)

Test system: 379773-124-R-J2-PDC complex spheroids, viability % test/control
Test: Anticancer human tumor 379773-124-R-J2-PDC patient-derived endometrial carcinoma cell line growth inhibition [CLK]
Details: for IC50: curve of first compound; for viability, T/C: stronger effect = lower value
How it was run: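 Multi-cell-type spheroids combined patient-derived tumor cells with HUVEC endothelial cells and human mesenchymal stem cells. Paired agents were dosed in half-log steps down from about clinical Cmax, or from 10 microM where Cmax was unknown.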

[1] = second compound 0.0316 µM, first compound 0.0316 µM
[2] = second compound 0.0316 µM, first compound 0.1 µM
[3] = second compound 0.0316 µM, first compound 0.316 µM
[4] = second compound 0.0316 µM, first compound 1 µM
[5] = second compound 0.0316 µM, first compound 3.16 µM
[6] = second compound 0.0316 µM, first compound 10 µM
[7] = second compound 0.1 µM, first compound 0.0316 µM
[8] = second compound 0.1 µM, first compound 0.1 µM
[9] = second compound 0.1 µM, first compound 0.316 µM
[10] = second compound 0.1 µM, first compound 1 µM
[11] = second compound 0.1 µM, first compound 3.16 µM
[12] = second compound 0.1 µM, first compound 10 µM
[13] = second compound 0.316 µM, first compound 0.0316 µM
[14] = second compound 0.316 µM, first compound 0.1 µM
[15] = second compound 0.316 µM, first compound 0.316 µM
[16] = second compound 0.316 µM, first compound 1 µM
[17] = second compound 0.316 µM, first compound 3.16 µM
[18] = second compound 0.316 µM, first compound 10 µM
[19] = second compound 1 µM, first compound 0.0316 µM
[20] = second compound 1 µM, first compound 0.1 µM
[21] = second compound 1 µM, first compound 0.316 µM
[22] = second compound 1 µM, first compound 1 µM
[23] = second compound 1 µM, first compound 3.16 µM
[24] = second compound 1 µM, first compound 10 µM
[25] = second compound 3.16 µM, first compound 0.0316 µM
[26] = second compound 3.16 µM, first compound 0.1 µM
[27] = second compound 3.16 µM, first compound 0.316 µM
[28] = second compound 3.16 µM, first compound 1 µM
[29] = second compound 3.16 µM, first compound 3.16 µM
[30] = second compound 3.16 µM, first compound 10 µM
[31] = second compound 10 µM, first compound 0.0316 µM
[32] = second compound 10 µM, first compound 0.1 µM
[33] = second compound 10 µM, first compound 0.316 µM
[34] = second compound 10 µM, first compound 1 µM
[35] = second compound 10 µM, first compound 3.16 µM
[36] = second compound 10 µM, first compound 10 µM
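Also: compound exposure lasted seven days before the viability readout.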
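For viability, T/C in this document: 100% = DMSO vehicle control wells.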

C=CC(=O)N1CCN(c2nc(=O)n(-c3c(C)ccnc3C(C)C)c3nc(-c4c(O)cccc4F)c(F)cc23)C(C)C1 (stereo unspecified) + CNC(=O)c1ccc(Nc2nc(OC3CCCC3)c3c(-c4ccc5nc(C)oc5c4)c[nH]c3n2)c(OC)c1
IC50 (second compound 0.0316 µM): > 10 µM
IC50 (second compound 0.1 µM): < 0.0316 µM
IC50 (second compound 0.316 µM): < 0.0316 µM
IC50 (second compound 1 µM): < 0.0316 µM
IC50 (second compound 3.16 µM): < 0.0316 µM
IC50 (second compound 10 µM): < 0.0316 µM
viability, T/C [1]: 74.3%
viability, T/C [2]: 80%
viability, T/C [3]: 76.1%
viability, T/C [4]: 76.5%
viability, T/C [5]: 76.5%
viability, T/C [6]: 71.3%
viability, T/C [7]: 34.9%
viability, T/C [8]: 46.9%
viability, T/C [9]: 42.7%
viability, T/C [10]: 39.2%
viability, T/C [11]: 36.6%
viability, T/C [12]: 38.3%
viability, T/C [13]: 43.6%
viability, T/C [14]: 33%
viability, T/C [15]: 41.9%
viability, T/C [16]: 41.6%
viability, T/C [17]: 37%
viability, T/C [18]: 38.5%
viability, T/C [19]: 34.6%
viability, T/C [20]: 33.1%
viability, T/C [21]: 45%
viability, T/C [22]: 34.5%
viability, T/C [23]: 32.6%
viability, T/C [24]: 28.4%
viability, T/C [25]: 31.1%
viability, T/C [26]: 34.5%
viability, T/C [27]: 34.9%
viability, T/C [28]: 28.1%
viability, T/C [29]: 29%
viability, T/C [30]: 27.7%
viability, T/C [31]: 27.8%
viability, T/C [32]: 33.1%
viability, T/C [33]: 29.2%
viability, T/C [34]: 28.2%
viability, T/C [35]: 40%
viability, T/C [36]: 18.4%

CCCS(=O)(=O)Nc1ccc(F)c(C(=O)c2c[nH]c3ncc(-c4ccc(Cl)cc4)cc23)c1F + CNC(=O)c1ccc(Nc2nc(OC3CCCC3)c3c(-c4ccc5nc(C)oc5c4)c[nH]c3n2)c(OC)c1
IC50 (second compound 0.0316 µM): 8.07 µM
IC50 (second compound 0.1 µM): < 0.0316 µM
IC50 (second compound 0.316 µM): < 0.0316 µM
IC50 (second compound 1 µM): < 0.0316 µM
IC50 (second compound 3.16 µM): < 0.0316 µM
IC50 (second compound 10 µM): < 0.0316 µM
viability, T/C [1]: 74.1%
viability, T/C [2]: 81.7%
viability, T/C [3]: 82.3%
viability, T/C [4]: 91.5%
viability, T/C [5]: 72.3%
viability, T/C [6]: 44.9%
viability, T/C [7]: 42%
viability, T/C [8]: 39%
viability, T/C [9]: 34.4%
viability, T/C [10]: 41.1%
viability, T/C [11]: 38%
viability, T/C [12]: 17.4%
viability, T/C [13]: 39.5%
viability, T/C [14]: 30.1%
viability, T/C [15]: 39%
viability, T/C [16]: 38.6%
viability, T/C [17]: 39.8%
viability, T/C [18]: 22.2%
viability, T/C [19]: 38.7%
viability, T/C [20]: 35.2%
viability, T/C [21]: 31%
viability, T/C [22]: 31.6%
viability, T/C [23]: 35.8%
viability, T/C [24]: 19%
viability, T/C [25]: 35%
viability, T/C [26]: 36.7%
viability, T/C [27]: 35.7%
viability, T/C [28]: 32.3%
viability, T/C [29]: 32.4%
viability, T/C [30]: 18.2%
viability, T/C [31]: 33.5%
viability, T/C [32]: 27.9%
viability, T/C [33]: 29.6%
viability, T/C [34]: 39.1%
viability, T/C [35]: 40.4%
viability, T/C [36]: 13.2%

COC1C=CCC(C)C(C)S(=O)(=O)NC(=O)c2ccc3c(c2)N(CC2CCC21)CC1(CCCc2cc(Cl)ccc21)CO3 (stereo unspecified) + CNC(=O)c1ccc(Nc2nc(OC3CCCC3)c3c(-c4ccc5nc(C)oc5c4)c[nH]c3n2)c(OC)c1
IC50 (second compound 0.0316 µM): 5.29 µM
IC50 (second compound 0.1 µM): < 0.0316 µM
IC50 (second compound 0.316 µM): < 0.0316 µM
IC50 (second compound 1 µM): < 0.0316 µM
IC50 (second compound 3.16 µM): < 0.0316 µM
IC50 (second compound 10 µM): < 0.0316 µM
viability, T/C [1]: 85.2%
viability, T/C [2]: 82.8%
viability, T/C [3]: 90.5%
viability, T/C [4]: 90%
viability, T/C [5]: 90%
viability, T/C [6]: 3.4%
viability, T/C [7]: 41.3%
viability, T/C [8]: 35.1%
viability, T/C [9]: 33.8%
viability, T/C [10]: 29.2%
viability, T/C [11]: 37%
viability, T/C [12]: 3.05%
viability, T/C [13]: 37.3%
viability, T/C [14]: 39.6%
viability, T/C [15]: 30.1%
viability, T/C [16]: 20.1%
viability, T/C [17]: 20.5%
viability, T/C [18]: 2.22%
viability, T/C [19]: 36.4%
viability, T/C [20]: 36.4%
viability, T/C [21]: 25.6%
viability, T/C [22]: 20.1%
viability, T/C [23]: 18.1%
viability, T/C [24]: 2.26%
viability, T/C [25]: 31.5%
viability, T/C [26]: 33.8%
viability, T/C [27]: 23.3%
viability, T/C [28]: 18.4%
viability, T/C [29]: 13%
viability, T/C [30]: 1.56%
viability, T/C [31]: 35.1%
viability, T/C [32]: 42.5%
viability, T/C [33]: 30.4%
viability, T/C [34]: 21.6%
viability, T/C [35]: 11.7%
viability, T/C [36]: 1.66%
